In PMC10850145, “Hormonal steroids induce multidrug resistance and stress response genes in Neisseria gonorrhoeae by binding to MtrR” (Nature Communications, 2024):
Values joined by “and” are separate entries in the source; they are usually repeats but may differ in a detail not shown here. Identical values can stand only once. “Also recorded” adds a separate entry of the source. Like-named read-outs stand apart in the source and are kept apart here.

Key:
MtrR R176E = target: T1, MtrR R176E (Neisseria gonorrhoeae, UniProt P39897, R176E); experiment: biochemical; type: binding
T1 construct: Hexa-histidine tag with TEV protease cleavage site (N, cleaved yes); made in house; host or cells: E. coli Rosetta Gami B(DE3) pLysS
T1 sequence (P39897 whole entry R176E): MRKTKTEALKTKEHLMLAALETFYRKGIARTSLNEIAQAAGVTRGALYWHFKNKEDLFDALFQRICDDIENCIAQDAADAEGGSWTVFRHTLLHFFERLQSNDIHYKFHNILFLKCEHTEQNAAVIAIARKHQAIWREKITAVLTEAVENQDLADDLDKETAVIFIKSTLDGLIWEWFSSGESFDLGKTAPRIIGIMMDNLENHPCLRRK

MtrR D171A = target: T2, MtrR D171A (Neisseria gonorrhoeae, UniProt P39897, D171A); experiment: biochemical; type: binding
T2 construct: Hexa-histidine tag with TEV protease cleavage site (N, cleaved yes); made in house; host or cells: E. coli Rosetta Gami B(DE3) pLysS
T2 sequence (P39897 whole entry D171A): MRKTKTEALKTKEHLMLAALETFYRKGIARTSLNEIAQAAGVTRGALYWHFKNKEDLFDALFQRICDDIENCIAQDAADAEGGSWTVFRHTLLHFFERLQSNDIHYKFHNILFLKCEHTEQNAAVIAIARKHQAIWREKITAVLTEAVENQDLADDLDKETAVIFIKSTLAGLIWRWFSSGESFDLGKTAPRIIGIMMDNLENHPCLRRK

[1] = target: T3, MtrR binding to rpoH operator (27mer) (Neisseria gonorrhoeae, UniProt P39897); experiment: Fluorescence polarization based DNA binding assay, rpoH operator; settings: rpoH 27mer + 125 µM steroid
T3 construct: Hexa-histidine tag with TEV protease cleavage site (N, cleaved yes); made in house; host or cells: E. coli Rosetta Gami B(DE3) pLysS
T3 sequence (P39897 whole entry): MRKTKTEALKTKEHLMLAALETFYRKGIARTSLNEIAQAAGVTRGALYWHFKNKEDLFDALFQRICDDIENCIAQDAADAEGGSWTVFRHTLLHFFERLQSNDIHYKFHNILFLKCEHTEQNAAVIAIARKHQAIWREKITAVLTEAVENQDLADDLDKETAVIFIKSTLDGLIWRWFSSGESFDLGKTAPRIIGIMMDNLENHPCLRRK
Experimental: Fluorescence polarization based-DNA binding data were collected using a Panvera Beacon 2000 fluorescence polarization system (Invitrogen) and analyzed with Prism (Graphpad Software 9, 10). Purified MtrR was buffer exchanged into “DNA” binding buffer (150 mM NaCl, 20 mM Tris-HCl pH 7.5, 2.5% glycerol, 1 mM TCEP). […] The reported oligoduplexes containing the rpoH and mtrCDE binding site differ in lengths, 27mer and 21mer, respectively[17],[21]. […] BSA and dI-dC are included as carriers and to control for nonspecific DNA binding. Samples were excited at 490 nm and polarized emissions measured at 530 nm. Controls were run with no protein (DNA ± methanol, hormonal steroids) to ensure that millipolarization values were not affected by experimental conditions alone. The binding affinity of protein for DNA was determined using the following equation: P = Pf + (Pb – Pf) [M] / (Kd + [M]) where P is the measured polarization, Pf is the polarization of free DNA, Pb is the polarization of the completely bound DNA, Kd is the equilibrium dissociation constant, and M is the concentration of protein. Pb and Kd were determined by nonlinear least-squares analysis. At least three independent experimental measurements were averaged for each reported binding constant.

gonococcal strain FA19 = experiment: MIC of steroidal hormones on GC agar, strain FA19; type: cell-based; settings: Neisseria gonorrhoeae, strain FA19, GC agar, read-out: MIC
Experimental: (§1) To determine the minimal inhibitory concentrations (MICs) by the steroidal hormones and their effect on antimicrobial susceptibility, 5 x 10^5 CFU and 1:5 serial dilutions of gonococcal strains were spotted on GC agar plates containing different concentrations of antibiotics and/or hormones as indicated. Antimicrobial susceptibility was assessed after 24 h incubation.
Table S1. Steroidal hormones are substrates of the MtrCDE efflux pump
Progesterone Testosterone
*Minimal inhibition concentration is defined by the lowest concentration at which visible growth is […]

wild type FA19 = experiment: Antimicrobial susceptibility spot assay with hormone plus azithromycin or polymyxin B, wild type FA19; type: cell-based, Neisseria gonorrhoeae; settings: wild-type FA19, GC agar, 24 h, visual
Experimental: (§2) Fig. 5 Effect of steroidal hormones on gonococcal antimicrobial susceptibility.
as §1

[2] = test system: mutant strain JF1 (ΔmtrR); experiment: Antimicrobial susceptibility spot assay with hormone plus antibiotic, JF1 (ΔmtrR); type: cell-based, Neisseria gonorrhoeae; settings: derivative lacking MtrR (JF1), azithromycin
Experimental: as §2, §1

rpoH-lacZ expression = type: cell-based, Neisseria gonorrhoeae; settings: for Miller units, single well: individual replicate; for Miller units, Mean: mean of 4 wells; for Miller units / β-galactosidase activity (Miller units): rpoH-lacZ, single replicate
N. gonorrhoeae = test system: N. gonorrhoeae; parameters: method as in PMID 816438; settings: listed as PTR; cited from earlier work
lptA-lacZ expression = experiment: β-galactosidase assay, lptA-lacZ fusion (negative control gene); settings: WT-lptA-lacZ
ngo1249-lacZ expression = experiment: β-galactosidase assay, ngo1249-lacZ fusion (negative control gene); settings: WT-NGO1249-lacZ
[3] = 6.25 µM hormone, plate columns 1-6 (WT)
[4] = 6.25 µM hormone, plate columns 7-12 (second strain, not WT)
[5] = 12.5 µM hormone, plate columns 1-6 (WT)
[6] = 12.5 µM hormone, plate columns 7-12 (second strain, not WT)
[7] = 25 µM hormone, plate columns 1-6 (WT)
[8] = 25 µM hormone, plate columns 7-12 (second strain, not WT)
[9] = 50 µM hormone, plate columns 1-6 (WT)
[10] = 50 µM hormone, plate columns 7-12 (second strain, not WT)
[11] = ΔmtrR + mtrR D171A in trans, 6.25 µM hormone
[12] = ΔmtrR + mtrR D171A in trans, 12.5 µM hormone
[13] = ΔmtrR + mtrR D171A in trans, 25 µM hormone
[14] = ΔmtrR + mtrR D171A in trans, 50 µM hormone

## CC(=O)[C@H]1CC[C@H]2[C@@H]3CCC4=CC(=O)CC[C@]4(C)[C@H]3CC[C@]12C [Progesterone, progesterone]
MtrR R176E
  Kd: 8.43 ± 8.3 µM
MtrR D171A
  Kd: 8.36 ± 2.5 µM
[1]; MtrR WT dimer 0.00 nM
  fluorescence polarization, MtrR titration: 0.00 mP
[1]; MtrR WT dimer 25.90 nM
  fluorescence polarization, MtrR titration: 11.91 mP and 9.75 mP and 10.51 mP
[1]; MtrR WT dimer 35.50 nM
  fluorescence polarization, MtrR titration: 14.38 mP and 9.72 mP and 14.14 mP
[1]; MtrR WT dimer 54.52 nM
  fluorescence polarization, MtrR titration: 18.81 mP and 15.99 mP and 17.44 mP
[1]; MtrR WT dimer 73.35 nM
  fluorescence polarization, MtrR titration: 23.45 mP and 18.32 mP and 20.67 mP
[1]; MtrR WT dimer 110.67 nM
  fluorescence polarization, MtrR titration: 27.11 mP and 21.95 mP and 25.01 mP
[1]; MtrR WT dimer 147.65 nM
  fluorescence polarization, MtrR titration: 29.38 mP and 25.62 mP and 28.21 mP
[1]; MtrR WT dimer 220.59 nM
  fluorescence polarization, MtrR titration: 32.78 mP and 29.35 mP and 32.41 mP
[1]; MtrR WT dimer 292.55 nM
  fluorescence polarization, MtrR titration: 36.31 mP and 32.79 mP and 35.11 mP
[1]; MtrR WT dimer 363.86 nM
  fluorescence polarization, MtrR titration: 36.91 mP and 35.45 mP and 37.94 mP
[1]; MtrR WT dimer 434.54 nM
  fluorescence polarization, MtrR titration: 40.61 mP and 38.05 mP and 40.54 mP
[1]; MtrR WT dimer 504.61 nM
  fluorescence polarization, MtrR titration: 41.81 mP and 39.19 mP and 42.17 mP
[1]; MtrR WT dimer 574.07 nM
  fluorescence polarization, MtrR titration: 44.75 mP and 41.42 mP and 44.21 mP
Gonococcal strain FA19; 24 h
  MIC: 127 µM
Gonococcal strain FA19
  MIC: 40 µg/mL
Wild type FA19
  resistance to azithromycin in presence of sub-lethal hormone: elevated levels of resistance
[2]
  change in antibiotic resistance in presence of sub-lethal hormone: did not show change
rpoH-lacZ expression; [3]
  Miller units, single well: 42 Miller units and 34 Miller units and 33 Miller units
  Miller units, Mean: 35 Miller units
rpoH-lacZ expression; [4]
  Miller units, single well: 87 Miller units and 84 Miller units and 94 Miller units and 85 Miller units
  Miller units, Mean: 87 Miller units
rpoH-lacZ expression; [5]
  Miller units, single well: 35 Miller units and 36 Miller units and 31 Miller units and 38 Miller units
  Miller units, Mean: 35 Miller units
rpoH-lacZ expression; [6]
  Miller units, single well: 87 Miller units and 78 Miller units and 71 Miller units and 77 Miller units
  Miller units, Mean: 78 Miller units
rpoH-lacZ expression; [7]
  Miller units, single well: 60 Miller units and 61 Miller units and 39 Miller units and 59 Miller units
  Miller units, Mean: 55 Miller units
rpoH-lacZ expression; [8]
  Miller units, single well: 95 Miller units and 81 Miller units and 89 Miller units and 80 Miller units
  Miller units, Mean: 86 Miller units
rpoH-lacZ expression; [9]
  Miller units, single well: 66 Miller units and 65 Miller units and 44 Miller units
  Miller units, Mean: 60 Miller units
rpoH-lacZ expression; [10]
  Miller units, single well: 64 Miller units and 60 Miller units and 72 Miller units and 71 Miller units
  Miller units, Mean: 67 Miller units
rpoH-lacZ expression; complemented (MtrR+) strains, increasing hormone
  induction of rpoH expression: could be induced
rpoH-lacZ expression; loss of MtrR or MtrR-D171A strain
  induction of rpoH expression: abrogated
rpoH-lacZ expression; [11]
  Miller units: 94 Miller units
  β-galactosidase activity (Miller units): 87 Miller units and 84 Miller units and 85 Miller units
rpoH-lacZ expression; [12]
  Miller units: 71 Miller units
  β-galactosidase activity (Miller units): 87 Miller units and 78 Miller units and 77 Miller units
rpoH-lacZ expression; [13]
  Miller units: 89 Miller units
  β-galactosidase activity (Miller units): 95 Miller units and 81 Miller units and 80 Miller units
rpoH-lacZ expression; [14]
  Miller units: 72 Miller units
  β-galactosidase activity (Miller units): 64 Miller units and 60 Miller units and 71 Miller units
rpoH-lacZ expression; ΔmtrR + mtrR WT in trans, 6.25 µM hormone
  β-galactosidase activity (Miller units): 42 Miller units and 34 Miller units and 33 Miller units
rpoH-lacZ expression; ΔmtrR + mtrR WT in trans, 12.5 µM hormone
  β-galactosidase activity (Miller units): 35 Miller units and 36 Miller units and 31 Miller units and 38 Miller units
rpoH-lacZ expression; ΔmtrR + mtrR WT in trans, 25 µM hormone
  β-galactosidase activity (Miller units): 60 Miller units and 61 Miller units and 39 Miller units and 59 Miller units
rpoH-lacZ expression; ΔmtrR + mtrR WT in trans, 50 µM hormone
  β-galactosidase activity (Miller units): 66 Miller units and 65 Miller units and 44 Miller units
rpoH-lacZ expression; ΔmtrR strain, 6.25 µM hormone
  β-galactosidase activity (Miller units): 315 Miller units and 172 Miller units and 146 Miller units
rpoH-lacZ expression; ΔmtrR strain, 12.5 µM hormone
  β-galactosidase activity (Miller units): 228 Miller units and 142 Miller units and 163 Miller units
rpoH-lacZ expression; ΔmtrR strain, 25 µM hormone
  β-galactosidase activity (Miller units): 253 Miller units and 160 Miller units and 118 Miller units
rpoH-lacZ expression; ΔmtrR strain, 50 µM hormone
  β-galactosidase activity (Miller units): 186 Miller units and 118 Miller units and 96 Miller units
rpoH-lacZ expression; ΔmtrR, 6.25 µM hormone
  Miller units: 180 Miller units
rpoH-lacZ expression; ΔmtrR, 12.5 µM hormone
  Miller units: 168 Miller units
rpoH-lacZ expression; ΔmtrR, 25 µM hormone
  Miller units: 170 Miller units
rpoH-lacZ expression; ΔmtrR, 50 µM hormone
  Miller units: 138 Miller units
rpoH-lacZ expression; strain WT (FA19/pLES94-rpoH), hormone 6.25 µM
  β-galactosidase activity, rpoH-lacZ, Mean: 66 Miller units
rpoH-lacZ expression; strain WT (FA19/pLES94-rpoH), hormone 12.5 µM
  β-galactosidase activity, rpoH-lacZ, Mean: 79 Miller units
rpoH-lacZ expression; strain WT (FA19/pLES94-rpoH), hormone 50 µM
  β-galactosidase activity, rpoH-lacZ, Mean: 136 Miller units
rpoH-lacZ expression; strain producing MtrR R176E
  activation of rpoH: almost no activation
rpoH-lacZ expression; strain ΔmtrR (FA19 ∆mtrR/pLES94-rpoH), hormone 6.25 µM
  β-galactosidase activity, rpoH-lacZ, Mean: 203 Miller units
rpoH-lacZ expression; strain ΔmtrR (FA19 ∆mtrR/pLES94-rpoH), hormone 12.5 µM
  β-galactosidase activity, rpoH-lacZ, Mean: 175 Miller units
rpoH-lacZ expression; strain ΔmtrR (FA19 ∆mtrR/pLES94-rpoH), hormone 25 µM
  β-galactosidase activity, rpoH-lacZ, Mean: 175 Miller units
rpoH-lacZ expression; strain ΔmtrR (FA19 ∆mtrR/pLES94-rpoH), hormone 50 µM
  β-galactosidase activity, rpoH-lacZ, Mean: 134 Miller units
rpoH-lacZ expression; strain ΔmtrR + mtrR D171A (pGCC3-mtrR D171A), hormone 6.25 µM
  β-galactosidase activity, rpoH-lacZ, Mean: 87 Miller units
rpoH-lacZ expression; strain ΔmtrR + mtrR D171A (pGCC3-mtrR D171A), hormone 12.5 µM
  β-galactosidase activity, rpoH-lacZ, Mean: 78 Miller units
rpoH-lacZ expression; strain ΔmtrR + mtrR D171A (pGCC3-mtrR D171A), hormone 25 µM
  β-galactosidase activity, rpoH-lacZ, Mean: 86 Miller units
rpoH-lacZ expression; strain ΔmtrR + mtrR D171A (pGCC3-mtrR D171A), hormone 50 µM
  β-galactosidase activity, rpoH-lacZ, Mean: 67 Miller units
rpoH-lacZ expression; strain ΔmtrR + mtrR WT (pGCC3-mtrR), hormone 6.25 µM
  β-galactosidase activity, rpoH-lacZ, Mean: 35 Miller units
rpoH-lacZ expression; strain ΔmtrR + mtrR WT (pGCC3-mtrR), hormone 12.5 µM
  β-galactosidase activity, rpoH-lacZ, Mean: 35 Miller units
rpoH-lacZ expression; strain ΔmtrR + mtrR WT (pGCC3-mtrR), hormone 25 µM
  β-galactosidase activity, rpoH-lacZ, Mean: 55 Miller units
rpoH-lacZ expression; strain ΔmtrR + mtrR WT (pGCC3-mtrR), hormone 50 µM
  β-galactosidase activity, rpoH-lacZ, Mean: 60 Miller units
N. gonorrhoeae
  growth inhibition of N. gonorrhoeae: arrest N. gonorrhoeae growth; also recorded: most effective in growth inhibition
lptA-lacZ expression; 0.1 µM hormone
  Mean Miller units: 10 Miller units
lptA-lacZ expression; 1 µM hormone
  Mean Miller units: 13 Miller units
lptA-lacZ expression; 10 µM hormone
  Mean Miller units: 13 Miller units
lptA-lacZ expression; 50 µM hormone
  Mean Miller units: 10 Miller units
lptA-lacZ expression; 100 µM hormone
  Mean Miller units: 12 Miller units
ngo1249-lacZ expression; 0.1 µM hormone
  Mean Miller units: 5 Miller units
ngo1249-lacZ expression; 1 µM hormone
  Mean Miller units: 8 Miller units
ngo1249-lacZ expression; 10 µM hormone
  Mean Miller units: 8 Miller units
ngo1249-lacZ expression; 50 µM hormone
  Mean Miller units: 6.43 Miller units
ngo1249-lacZ expression; 100 µM hormone
  Mean Miller units: 6.923 Miller units
